Experiment [1] concerns E. coli BL21(DE3)/pET-SPM-1. The experiment in a line: Susceptibility testing, SPM-1-producing E. coli. In kind it is cell-based. Particulars: Escherichia coli. On the procedure:
(§1) MICs were determined via the microdilution method according to the CLSI guidelines ([38]). In brief, 5 × 10^4 bacterial cells were inoculated in 100 μl of cation-adjusted Mueller-Hinton broth (Becton, Dickinson and Company, Franklin Lakes, NJ) containing the β-lactams and appropriately diluted inhibitors. The final concentration of DMSO was maintained at 2% in the assays. The tested plates were then incubated at 35°C for 16 to 20 h. The MIC value was determined as the lowest concentration of tested β-lactams where no bacterial growth was visibly observed. The optical density at 600 nm (OD600) value was measured using a plate reader for drawing the heat maps. The FIC index value was calculated using the following equation: FIC index=MIC of β-lactam with inhibitor/MIC of β-lactam alone+MIC of inhibitor with β-lactam/MIC of inhibitor alone

For experiment [2], the system named is E. coli BL21(DE3)/pET-SIM-1. The experiment is described as follows: Susceptibility testing, SIM-1-producing E. coli. Particulars: Escherichia coli. The experiment is classed as cell-based. As for the experimental part: as §1
The subject of experiment [3] is Pseudomonas aeruginosa clinical isolates. The experiment in a line: Susceptibility testing, 17 P. aeruginosa clinical isolates. In kind it is cell-based. On the procedure: as §1
For experiment [4], the system named is NDM-type MBL-producing Enterobacteriaceae. The experiment is described as follows: Susceptibility testing, 14 NDM-type MBL-producing Enterobacteriaceae isolates. In kind it is cell-based. The settings on record: 10 μg/ml SFC, NDM-producing Enterobacteriaceae. On the procedure:
as §1

Experiment [5] relates to IMP-1-producing E. coli NUBL-24. The experiment in a line: Time-kill assay. The experiment is classed as cell-based, Escherichia coli. Particulars: 10 μg/ml SFC added to 1 μg/ml MPM, 6 h. As for the experimental part:
The initial density of E. coli NUBL-24 (blaIMP-1) (MPM MIC, 8 μg/ml) was adjusted to approximately 5 × 10^6 CFU/ml. Either MPM (1 μg/ml) alone or SFC (10 μg/ml) alone or a combination of the two was added to the bacterial solution, and then incubation was performed at 37°C. LB broth containing only bacteria was used as a control. At 0, 2, 4, 6, and 24 h after adding the agents, an aliquot of bacterial culture was removed, diluted, and spotted on LB agar plates to count the viable bacterial cells. The detection limit was set at 200 CFU/ml.

Where [6] appears, read: read-out: MIC of MPM + inhibitor (8 μg/ml).
Setting [7] is: read-out: MIC of MPM + inhibitor (32 μg/ml).

Like-named read-outs stand apart in the source and are kept apart here.

Take `Cc1oc(C)c(S(N)(=O)=O)c1C(=O)O` [SFC, 2,5-dimethyl-4-sulfamoylfuran-3-carboxylic acid]: the MIC worked out at 0.063 µg/mL in experiment [1] (setting [6]), 0.063 µg/mL in experiment [1] (setting [7]), 2 µg/mL in experiment [2] (setting [6]) and 1 µg/mL in experiment [2] (setting [7]). The results for the “Drop of MPM MIC50” value in experiment [3] (10 μg/ml SFC) and in experiment [3] (50 μg/ml SFC) were 2 fold and 8 fold, respectively. Further, in experiment [4], the “Reduction of MPM MIC50” value came out at 8 fold. Besides, the “Reduction of bacterial population” value in experiment [5] is on record as “more than 1,000 fold”.

The values above are taken from article PMC7078479, “Sulfamoyl Heteroarylcarboxylic Acids as Promising Metallo-β-Lactamase Inhibitors for Controlling Bacterial Carbapenem Resistance” (mBio, 2020).
